From ChEMBL document CHEMBL4825711, “Necrostatins regulate apoptosis, necroptosis, and inflammation in cisplatin-induced nephrotoxicity in LLC-PK1 cells” (2021)
The source made the active and inactive calls. The rule behind the calls is not given here.

Experiments:
LLC-PK1 [1] = assay: Protection against cisplatin-induced nephrotoxicity in pig LLC-PK1 cells assessed as cell viability at 50 uM measured after 24 hrs in presence of cisplatin; assay type: functional; conditions: Sus scrofa, read-out: Activity
LLC-PK1 [2] = assay: Protection against cisplatin-induced nephrotoxicity in pig LLC-PK1 cells assessed as inhibition of apoptosis by measuring reduction in green stained cells at 50 uM measured after 24 hrs in presence of cisplatin by Tali image based cytometric analysis; assay type: functional, cell-based; conditions: Sus scrofa
LLC-PK1 [3] = assay: Protection against cisplatin-induced nephrotoxicity in pig LLC-PK1 cells assessed as inhibition of apoptosis by measuring decrease in cleaved caspase-3 level at 50 uM measured after 24 hrs in presence of cisplatin by western blot analysis; assay type: functional, cell-based; conditions: Sus scrofa
LLC-PK1 [4] = assay: Inhibition of cisplatin-induced JNK phosphorylation in pig LLC-PK1 cells at 50 uM measured after 24 hrs in presence of cisplatin by western blot analysis; assay type: cell-based; conditions: Sus scrofa
LLC-PK1 [5] = assay: Inhibition of cisplatin-induced ERK phosphorylation in pig LLC-PK1 cells at 50 uM measured after 24 hrs in presence of cisplatin by western blot analysis; assay type: cell-based; conditions: Sus scrofa
LLC-PK1 [6] = assay: Inhibition of cisplatin-induced p38 MAPK phosphorylation in pig LLC-PK1 cells at 50 uM measured after 24 hrs in presence of cisplatin by western blot analysis; assay type: cell-based; conditions: Sus scrofa
LLC-PK1 [7] = assay: Protection against cisplatin-induced nephrotoxicity in pig LLC-PK1 cells assessed as increase in cell viability measured after 24 hrs in presence of cisplatin; assay type: functional, cell-based; conditions: Sus scrofa, dose 3.125-50 µM
LLC-PK1 [8] = assay: Protection against cisplatin-induced nephrotoxicity in pig LLC-PK1 cells assessed as inhibition of apoptosis by measuring red-stained dead cells at 50 uM measured after 24 hrs in presence of cisplatin by Tali image based cytometric analysis; assay type: functional, cell-based; conditions: Sus scrofa
LLC-PK1 [9] = assay: Protection against cisplatin-induced nephrotoxicity in pig LLC-PK1 cells assessed as increase in cell viability at 50 to 1000 uM measured after 24 hrs in presence of cisplatin; assay type: functional, cell-based; conditions: Sus scrofa, dose 50-1000 µM
LLC-PK1 [10] = assay: Protection against cisplatin-induced nephrotoxicity in pig LLC-PK1 cells assessed as cell viability at 1000 uM measured after 24 hrs in presence of cisplatin; assay type: functional; conditions: Sus scrofa, read-out: Activity

Row | Compound | viability at 50 µM (LLC-PK1 [1]) [%] | Activity (LLC-PK1 [2]) | Activity (LLC-PK1 [3]) | inhibition (LLC-PK1 [4]) | inhibition (LLC-PK1 [5]) | inhibition (LLC-PK1 [6]) | Activity (LLC-PK1 [7]) | Activity (LLC-PK1 [8]) | Activity (LLC-PK1 [9]) | viability at 1000 µM (LLC-PK1 [10]) [%]
1 | COc1ccc([C@H]2[C@@H]3CCc4ccc(OC)cc4C3=NN2C(C)=O)cc1 | 84.5 | Active | Active | Active | Active | Active |  |  |  | 
2 | COc1ccc([C@H]2[C@H]3CCc4ccc(OC)cc4C3=NN2C(C)=O)cc1 | 87.5 | Active | Active | Active | Active | Active | Dose-Dependent Effect |  |  | 
3 | CN1C(=O)C(Cc2c[nH]c3ccccc23)NC1=S (stereo not drawn) [NECROSTATIN] | 90.5 | Active | Active | Active | Active | Active | Dose-Dependent Effect | inactive |  | 
4 | CC(=O)N[C@@H](CS)C(=O)O [ACETYLCYSTEINE] |  |  |  |  |  |  |  |  | Dose-Dependent Effect | 89.4
